We go through 17 compounds from ChEMBL document CHEMBL1128955, “Benzolactam growth hormone secretagogues: Replacement of the C-3 amide bond in L-692,429” (1996).

The source made the active and inactive calls. The calls are words filed in the database; no cut-off is given here.

One test is filed under the species Rattus norvegicus. Description: In vitro growth hormone release in rat pituitary cells. The format is functional. The conditions noted are these: Pituitary gland cell, read-out: ED50 (the source's name).
Take `C[C@@H](O)CNC(C)(C)CC(=O)N[C@@H]1CCc2ccccc2N(Cc2ccc(-c3ccccc3-c3nn[nH]n3)cc2)C1=O` [L-692585]: the EC50 stood at 0.003 µM.

For the compound `CC(C)(N)CCSC1CCc2ccccc2N(Cc2ccc(-c3ccccc3-c3nn[nH]n3)cc2)C1=O` (configuration not stated), the EC50 came to 6 µM.

In the case of `CC(C)(N)CC(=O)NC1CCc2ccccc2N(Cc2ccc(-c3ccccc3-c3nn[nH]n3)cc2)C1=O` [L-158432], the EC50 worked out at 0.12 µM.

Turning to `CC(C)(N)CCCSC1CCc2ccccc2N(Cc2ccc(-c3ccccc3-c3nn[nH]n3)cc2)C1=O` (configuration not stated), the EC50 came out at 7 µM.

For `CC(C)(N)CC(=O)N[C@@H]1CCc2ccccc2N(Cc2ccc(-c3ccccc3-c3nn[nH]n3)cc2)C1=O`, the EC50 worked out at 0.06 µM.

In the case of `CC(C)(N)C(=O)N[C@@H]1CCc2ccccc2N(Cc2ccc(-c3ccccc3-c3nn[nH]n3)cc2)C1=O`, the EC50 is 0.03 µM.

Regarding `CC(C)(N)CNC(=O)N[C@@H]1CCc2ccccc2N(Cc2ccc(-c3ccccc3-c3nn[nH]n3)cc2)C1=O`, the EC50 turned out to be 0.1 µM.

`CC(C)(N)CNC1CCc2ccccc2N(Cc2ccc(-c3ccccc3-c3nn[nH]n3)cc2)C1=O` (configuration not stated): the EC50 worked out at 1 µM.

Take `C[C@H](O)CNC(C)(C)CNC(=O)N[C@@H]1CCc2ccccc2N(Cc2ccc(-c3ccccc3-c3nn[nH]n3)cc2)C1=O`: the EC50 stood at 2.5 µM.

Turning to `CN(C(=O)CC(C)(C)N)[C@@H]1CCc2ccccc2N(Cc2ccc(-c3ccccc3-c3nn[nH]n3)cc2)C1=O`, the EC50 came out at 7 µM.

With `C[C@H](O)CNC(C)(C)CC(=O)N[C@@H]1CCc2ccccc2N(Cc2ccc(-c3ccccc3-c3nn[nH]n3)cc2)C1=O`, the EC50 turned out to be 0.007 µM.

`CC(C)(N)CCC(=O)N[C@@H]1CCc2ccccc2N(Cc2ccc(-c3ccccc3-c3nn[nH]n3)cc2)C1=O`: the EC50 turned out to be 3 µM.

The species entered for another test is Rattus norvegicus. Kind of test: In vitro growth hormone release in rat pituitary cells at 1 uM; Weakly active. It is filed as functional, cell-based. The conditions noted are these: Pituitary gland cell.
For `C[C@@H](O)CNC(C)(C)CNC(=O)N[C@@H]1CCc2ccccc2N(Cc2ccc(-c3ccccc3-c3nn[nH]n3)cc2)C1=O`, the “Growth hormone release at 1 uM (qualitative)” value (“Growth hormone release at 1 uM” below) was “Weak activity”.

For the compound `CC(C)(N)CC(=O)OC1CCc2ccccc2N(Cc2ccc(-c3ccccc3-c3nn[nH]n3)cc2)C1=O` (configuration not stated), the “Growth hormone release at 1 uM” value was “Weak activity”.

`CC(C)(N)CCNC1CCc2ccccc2N(Cc2ccc(-c3ccccc3-c3nn[nH]n3)cc2)C1=O` (configuration not stated): the “Growth hormone release at 1 uM” value was “Weak activity”.

`CC(C)(N)NC(=O)N[C@@H]1CCc2ccccc2N(Cc2ccc(-c3ccccc3-c3nn[nH]n3)cc2)C1=O`: the “Growth hormone release at 1 uM” value was “Weak activity”.

The species entered for the next test is Rattus norvegicus. Description: In vitro growth hormone release in rat pituitary cells at 10 uM; inactive. It is filed as functional, cell-based. To be noted: Pituitary gland cell.
Consider `CC(C)(N)CC(=O)N(Cc1ccccc1)[C@@H]1CCc2ccccc2N(Cc2ccc(-c3ccccc3-c3nn[nH]n3)cc2)C1=O`, for which the ED50 entry is “inactive”.
